Test results: paper PMC9954146, “Anti-Leukaemic Activity of Rilpivirine Is Mediated by Aurora A Kinase Inhibition” (Cancers, 2023)

Key:
Experiment in all cases: Kinase panel
Assay type in all cases: biochemical
Settings in all cases: read-out: % Residual Activity
[1] = biological target: T1, SBK1(h) (Homo sapiens, UniProt Q52WX2)
T1 construct: purchased Eurofins (KinaseProfiler)
Description: (§1) Kinome-wide selectivity of rilpivirine was measured using the kinase screening and profiling service of Eurofins Scientific (Le bois l’Evêque 86600. Celle-Lévescault, France) and Ki values were determined using radioisotope-based assays by Reaction Biology Corporation (Malvern, PA, USA). The experimental details of Eurofin Scientific and Reaction Biology services for relevant assays are available at https://www.eurofinsdiscoveryservices.com/services/in-Vitro-assays/kinases/kinase-profiler (accessed on 7 July 2021) and https://www.reactionbiology.com (accessed on 7 July 2021), respectively. Ki values were estimated from the corresponding IC50 values using the Cheng–Prusoff equation [21] and the Km (ATP) of individual kinase was used for IC50 determination.

[2] = biological target: T2, FGFR1(h) (Homo sapiens, UniProt P11362)
T2 construct: purchased Eurofins (KinaseProfiler)
Description: as §1

[3] = biological target: T3, DAPK2(h) (Homo sapiens, UniProt Q9UIK4)
T3 construct: purchased Eurofins (KinaseProfiler)
Description: as §1

[4] = biological target: T4, Snk(h) (Homo sapiens, UniProt Q9NYY3)
T4 construct: purchased Eurofins (KinaseProfiler)
T4 sequence (Q9NYY3 whole entry): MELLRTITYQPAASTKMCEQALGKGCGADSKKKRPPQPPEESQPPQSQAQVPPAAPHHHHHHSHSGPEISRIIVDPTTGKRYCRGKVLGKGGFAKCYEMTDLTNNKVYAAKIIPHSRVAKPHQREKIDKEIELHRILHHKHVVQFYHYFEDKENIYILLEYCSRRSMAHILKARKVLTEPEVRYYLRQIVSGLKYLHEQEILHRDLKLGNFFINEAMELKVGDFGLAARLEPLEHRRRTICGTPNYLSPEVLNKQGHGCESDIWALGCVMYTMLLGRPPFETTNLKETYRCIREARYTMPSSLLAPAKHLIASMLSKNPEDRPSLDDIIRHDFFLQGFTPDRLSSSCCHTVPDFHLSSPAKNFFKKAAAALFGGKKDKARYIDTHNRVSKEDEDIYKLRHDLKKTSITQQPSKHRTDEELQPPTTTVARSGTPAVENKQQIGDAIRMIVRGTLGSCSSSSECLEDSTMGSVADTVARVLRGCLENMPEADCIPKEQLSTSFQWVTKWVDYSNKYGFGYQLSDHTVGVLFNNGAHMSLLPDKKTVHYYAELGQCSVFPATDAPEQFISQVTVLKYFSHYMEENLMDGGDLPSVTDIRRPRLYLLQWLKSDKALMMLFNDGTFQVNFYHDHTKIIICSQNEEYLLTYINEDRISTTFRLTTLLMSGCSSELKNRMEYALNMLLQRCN
Description: as §1

[5] = biological target: T5, Met(Y1248C)(h) (Homo sapiens, UniProt P08581, Y1230C)
T5 construct: purchased Eurofins (KinaseProfiler)
T5 sequence (P08581 956-1390 Y1230C limits assumed): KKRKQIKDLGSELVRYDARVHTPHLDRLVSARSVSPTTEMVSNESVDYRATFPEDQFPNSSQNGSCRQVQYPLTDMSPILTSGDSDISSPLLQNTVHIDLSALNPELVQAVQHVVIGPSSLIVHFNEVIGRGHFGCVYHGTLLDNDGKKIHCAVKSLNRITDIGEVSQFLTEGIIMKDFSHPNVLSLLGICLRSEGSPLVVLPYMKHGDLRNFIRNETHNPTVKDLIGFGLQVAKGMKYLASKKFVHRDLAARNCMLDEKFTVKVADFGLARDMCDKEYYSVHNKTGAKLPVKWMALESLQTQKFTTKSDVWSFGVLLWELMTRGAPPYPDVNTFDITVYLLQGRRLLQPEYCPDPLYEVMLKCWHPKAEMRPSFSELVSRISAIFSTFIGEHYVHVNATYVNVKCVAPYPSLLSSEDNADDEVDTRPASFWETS
Description: as §1

[6] = biological target: T6, MAK(h) (Homo sapiens, UniProt P20794)
T6 construct: purchased Eurofins (KinaseProfiler)
Description: as §1

[7] = biological target: T7, CK1γ1(h) (Homo sapiens, UniProt Q9HCP0)
T7 construct: purchased Eurofins (KinaseProfiler)
Description: as §1

[8] = biological target: T8, GRK3(h) (Homo sapiens, UniProt P35626)
T8 construct: purchased Eurofins (KinaseProfiler)
Description: as §1

[9] = biological target: T9, TAO1(h) (Homo sapiens, UniProt Q7L7X3)
T9 construct: purchased Eurofins (KinaseProfiler)
Description: as §1

[10] = biological target: T10, CHK1(h) (Homo sapiens, UniProt O14757)
T10 construct: purchased Eurofins (KinaseProfiler)
T10 sequence (O14757 whole entry): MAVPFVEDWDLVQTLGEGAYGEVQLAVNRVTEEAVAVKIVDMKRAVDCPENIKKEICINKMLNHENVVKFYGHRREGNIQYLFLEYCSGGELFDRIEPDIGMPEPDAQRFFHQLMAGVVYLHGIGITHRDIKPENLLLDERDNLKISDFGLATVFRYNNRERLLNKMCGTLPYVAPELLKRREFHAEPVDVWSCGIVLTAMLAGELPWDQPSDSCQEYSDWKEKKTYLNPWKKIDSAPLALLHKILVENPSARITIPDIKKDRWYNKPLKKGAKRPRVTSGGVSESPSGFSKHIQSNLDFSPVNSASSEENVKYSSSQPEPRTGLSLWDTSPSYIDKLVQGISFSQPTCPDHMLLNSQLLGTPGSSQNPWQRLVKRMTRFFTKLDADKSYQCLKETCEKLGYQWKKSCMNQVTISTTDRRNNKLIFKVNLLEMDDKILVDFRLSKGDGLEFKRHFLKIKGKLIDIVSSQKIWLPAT
Description: as §1

[11] = biological target: T11, CDK4/cyclinD3(h) (Homo sapiens, UniProt P11802)
T11 construct: purchased Eurofins (KinaseProfiler)
Description: as §1

[12] = biological target: T12, CaMKIγ(h) (Homo sapiens, UniProt Q96NX5)
T12 construct: purchased Eurofins (KinaseProfiler)
Description: as §1

[13] = biological target: T13, ATM(h) (Homo sapiens, UniProt Q13315)
T13 construct: purchased Eurofins (KinaseProfiler)
Description: as §1

[14] = biological target: T14, Itk(h) (Homo sapiens, UniProt Q08881)
T14 construct: purchased Eurofins (KinaseProfiler)
Description: as §1

[15] = biological target: T15, Mer(h) (Homo sapiens, UniProt Q12866)
T15 construct: purchased Eurofins (KinaseProfiler)
Description: as §1

[16] = biological target: T16, NEK1(h) (Homo sapiens, UniProt Q96PY6)
T16 construct: purchased Eurofins (KinaseProfiler)
Description: as §1

[17] = biological target: T17, GCK(h) (Homo sapiens, UniProt Q12851)
T17 construct: purchased Eurofins (KinaseProfiler)
T17 sequence (Q12851 whole entry): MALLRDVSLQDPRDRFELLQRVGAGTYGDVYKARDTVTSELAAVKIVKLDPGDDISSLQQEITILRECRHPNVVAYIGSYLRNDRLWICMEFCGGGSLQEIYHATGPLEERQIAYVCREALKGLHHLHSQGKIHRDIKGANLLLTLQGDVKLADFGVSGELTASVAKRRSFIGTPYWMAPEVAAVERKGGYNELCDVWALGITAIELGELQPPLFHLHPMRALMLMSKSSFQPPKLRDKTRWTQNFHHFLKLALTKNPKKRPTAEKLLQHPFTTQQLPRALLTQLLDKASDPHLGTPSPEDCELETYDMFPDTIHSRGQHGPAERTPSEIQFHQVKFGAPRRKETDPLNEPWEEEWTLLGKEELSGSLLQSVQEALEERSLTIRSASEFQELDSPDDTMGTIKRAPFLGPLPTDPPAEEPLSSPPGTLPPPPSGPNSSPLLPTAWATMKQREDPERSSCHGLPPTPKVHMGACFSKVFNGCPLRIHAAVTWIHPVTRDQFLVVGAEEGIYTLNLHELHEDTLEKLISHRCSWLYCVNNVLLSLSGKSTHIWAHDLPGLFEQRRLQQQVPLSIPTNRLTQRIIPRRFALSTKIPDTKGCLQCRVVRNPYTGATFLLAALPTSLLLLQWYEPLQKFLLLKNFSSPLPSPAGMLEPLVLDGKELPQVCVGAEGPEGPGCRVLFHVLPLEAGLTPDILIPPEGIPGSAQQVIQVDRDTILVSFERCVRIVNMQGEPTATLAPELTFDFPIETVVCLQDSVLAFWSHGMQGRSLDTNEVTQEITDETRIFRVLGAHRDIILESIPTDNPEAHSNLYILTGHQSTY
Description: as §1

[18] = biological target: T18, MST2(h) (Homo sapiens, UniProt Q13188)
T18 construct: purchased Eurofins (KinaseProfiler)
Description: as §1

[19] = biological target: T19, MSK1(h) (Homo sapiens, UniProt O75582)
T19 construct: purchased Eurofins (KinaseProfiler)
Description: as §1

[20] = biological target: T20, GSK3α(h) (Homo sapiens, UniProt P49840)
T20 construct: purchased Eurofins (KinaseProfiler)
Description: as §1

[21] = biological target: T21, NLK(h) (Homo sapiens, UniProt Q9UBE8)
T21 construct: purchased Eurofins (KinaseProfiler)
Description: as §1

[22] = biological target: T22, ZAK(h) (Homo sapiens, UniProt Q9NYL2)
T22 construct: purchased Eurofins (KinaseProfiler)
Description: as §1

[23] = biological target: T23, FGFR2(h) (Homo sapiens, UniProt P21802)
T23 construct: purchased Eurofins (KinaseProfiler)
Description: as §1

[24] = biological target: T24, PRK1(h) (Homo sapiens, UniProt Q16512)
T24 construct: purchased Eurofins (KinaseProfiler)
Description: as §1

[25] = biological target: T25, ACTR2(h) (Homo sapiens, UniProt P27037)
T25 construct: purchased Eurofins (KinaseProfiler)
Description: as §1

[26] = biological target: T26, NEK3(h) (Homo sapiens, UniProt P51956)
T26 construct: purchased Eurofins (KinaseProfiler)
Description: as §1

[27] = biological target: T27, MRCKγ(h) (Homo sapiens, UniProt Q6DT37)
T27 construct: purchased Eurofins (KinaseProfiler)
Description: as §1

[28] = biological target: T28, NEK2(h) (Homo sapiens, UniProt P51955)
T28 construct: purchased Eurofins (KinaseProfiler)
Description: as §1

[29] = biological target: T29, MKK4(m) (Mus musculus, UniProt P47809)
T29 construct: purchased Eurofins (KinaseProfiler)
Description: as §1

[30] = biological target: T30, STK25(h) (Homo sapiens, UniProt O00506)
T30 construct: purchased Eurofins (KinaseProfiler)
Description: as §1

[31] = biological target: T31, EphA7(h) (Homo sapiens, UniProt Q15375)
T31 construct: purchased Eurofins (KinaseProfiler)
Description: as §1

[32] = biological target: T32, LTK(h) (Homo sapiens, UniProt P29376)
T32 construct: purchased Eurofins (KinaseProfiler)
Description: as §1

[33] = biological target: T33, RIPK1(h) (Homo sapiens, UniProt Q13546)
T33 construct: purchased Eurofins (KinaseProfiler)
T33 sequence (Q13546 whole entry): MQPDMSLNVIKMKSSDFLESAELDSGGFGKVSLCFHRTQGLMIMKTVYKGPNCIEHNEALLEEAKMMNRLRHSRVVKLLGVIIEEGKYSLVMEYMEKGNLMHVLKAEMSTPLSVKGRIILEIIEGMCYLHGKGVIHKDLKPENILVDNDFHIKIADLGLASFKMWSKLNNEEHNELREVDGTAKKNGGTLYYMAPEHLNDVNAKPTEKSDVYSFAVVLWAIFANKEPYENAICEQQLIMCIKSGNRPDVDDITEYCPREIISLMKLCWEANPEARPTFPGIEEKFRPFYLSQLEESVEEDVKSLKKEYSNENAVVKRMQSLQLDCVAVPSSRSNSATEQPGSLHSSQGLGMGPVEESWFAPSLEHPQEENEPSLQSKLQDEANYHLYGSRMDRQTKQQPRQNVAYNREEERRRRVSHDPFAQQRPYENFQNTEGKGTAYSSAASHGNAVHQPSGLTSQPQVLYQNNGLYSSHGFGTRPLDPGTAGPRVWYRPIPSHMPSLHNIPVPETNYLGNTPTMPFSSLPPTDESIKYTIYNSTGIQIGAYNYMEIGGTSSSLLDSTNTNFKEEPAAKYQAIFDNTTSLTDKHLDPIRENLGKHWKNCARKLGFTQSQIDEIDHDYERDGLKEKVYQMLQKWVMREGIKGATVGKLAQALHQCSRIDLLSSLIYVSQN
Description: as §1

[34] = biological target: T34, PDHK2(h) (Homo sapiens, UniProt Q15119)
T34 construct: purchased Eurofins (KinaseProfiler)
Description: as §1

[35] = biological target: T35, Lck(h) (Homo sapiens, UniProt P06239)
T35 construct: purchased Eurofins (KinaseProfiler)
Description: as §1

[36] = biological target: T36, DYRK3(h) (Homo sapiens, UniProt O43781)
T36 construct: purchased Eurofins (KinaseProfiler)
T36 sequence (O43781 whole entry): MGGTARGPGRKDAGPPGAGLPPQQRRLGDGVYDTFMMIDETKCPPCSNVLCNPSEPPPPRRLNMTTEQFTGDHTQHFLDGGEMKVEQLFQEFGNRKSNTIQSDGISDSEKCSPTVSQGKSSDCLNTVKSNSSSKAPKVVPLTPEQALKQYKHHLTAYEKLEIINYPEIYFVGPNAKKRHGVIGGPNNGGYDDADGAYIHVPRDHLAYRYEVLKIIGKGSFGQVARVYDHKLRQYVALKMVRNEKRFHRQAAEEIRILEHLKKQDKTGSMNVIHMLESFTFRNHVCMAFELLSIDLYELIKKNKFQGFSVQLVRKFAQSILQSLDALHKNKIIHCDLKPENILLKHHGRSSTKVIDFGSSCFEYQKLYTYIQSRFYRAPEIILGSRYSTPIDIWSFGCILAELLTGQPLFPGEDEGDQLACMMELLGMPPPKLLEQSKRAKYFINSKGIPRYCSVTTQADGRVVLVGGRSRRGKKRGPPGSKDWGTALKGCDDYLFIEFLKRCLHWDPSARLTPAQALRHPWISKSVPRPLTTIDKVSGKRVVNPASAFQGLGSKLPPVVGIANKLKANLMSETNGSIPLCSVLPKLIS
Description: as §1

[37] = biological target: T37, Axl(h) (Homo sapiens, UniProt P30530)
T37 construct: purchased Eurofins (KinaseProfiler)
T37 sequence (P30530 26-894): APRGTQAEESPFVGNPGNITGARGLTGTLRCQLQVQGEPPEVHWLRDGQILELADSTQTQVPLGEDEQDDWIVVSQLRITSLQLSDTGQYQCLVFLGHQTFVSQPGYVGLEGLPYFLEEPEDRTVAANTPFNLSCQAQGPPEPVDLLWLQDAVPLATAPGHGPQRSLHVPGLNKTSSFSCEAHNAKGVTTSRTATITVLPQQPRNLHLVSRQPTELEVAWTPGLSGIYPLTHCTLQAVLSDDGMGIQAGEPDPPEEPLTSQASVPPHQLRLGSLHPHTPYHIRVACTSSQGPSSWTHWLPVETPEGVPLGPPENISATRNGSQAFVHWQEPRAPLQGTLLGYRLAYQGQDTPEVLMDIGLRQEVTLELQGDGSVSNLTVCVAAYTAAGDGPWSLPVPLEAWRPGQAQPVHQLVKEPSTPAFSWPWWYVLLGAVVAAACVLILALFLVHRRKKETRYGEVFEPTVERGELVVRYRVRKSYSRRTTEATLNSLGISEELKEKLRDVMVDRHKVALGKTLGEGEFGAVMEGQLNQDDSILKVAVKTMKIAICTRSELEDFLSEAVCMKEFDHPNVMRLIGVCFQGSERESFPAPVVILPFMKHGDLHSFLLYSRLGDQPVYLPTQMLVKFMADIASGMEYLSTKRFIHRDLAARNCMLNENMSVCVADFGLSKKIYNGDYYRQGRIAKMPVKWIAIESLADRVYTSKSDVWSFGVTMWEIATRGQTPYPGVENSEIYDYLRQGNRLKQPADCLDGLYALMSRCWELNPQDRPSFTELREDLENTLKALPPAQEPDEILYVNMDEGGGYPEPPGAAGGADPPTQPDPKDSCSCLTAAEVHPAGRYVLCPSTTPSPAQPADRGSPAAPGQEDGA
Description: as §1

[38] = biological target: T38, TSSK3(h) (Homo sapiens, UniProt Q96PN8)
T38 construct: purchased Eurofins (KinaseProfiler)
Description: as §1

[39] = biological target: T39, Lck(h) activated (Homo sapiens, UniProt P06239)
T39 construct: purchased Eurofins (KinaseProfiler)
Description: as §1

T1 sequence (Q52WX2 whole entry): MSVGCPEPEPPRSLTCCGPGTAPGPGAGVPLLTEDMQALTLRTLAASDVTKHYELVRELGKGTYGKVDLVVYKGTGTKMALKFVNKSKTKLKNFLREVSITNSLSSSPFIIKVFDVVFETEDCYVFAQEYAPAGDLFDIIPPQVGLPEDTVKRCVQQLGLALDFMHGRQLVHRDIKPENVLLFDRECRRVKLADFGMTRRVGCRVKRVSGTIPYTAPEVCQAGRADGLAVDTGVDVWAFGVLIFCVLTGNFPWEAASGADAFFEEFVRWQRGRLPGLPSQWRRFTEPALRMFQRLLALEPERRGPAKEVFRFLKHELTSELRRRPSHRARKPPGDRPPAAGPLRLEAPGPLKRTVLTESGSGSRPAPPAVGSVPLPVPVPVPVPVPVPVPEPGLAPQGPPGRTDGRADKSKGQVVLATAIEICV

Work on Cc1cc(/C=C/C#N)cc(C)c1Nc1ccnc(Nc2ccc(C#N)cc2)n1 [rilpivirine, (E)-4-((4-((4-(2-cyanoethenyl)-2,6-dimethylphenyl)amino)pyrimidin-2-yl)amino)benzonitrile] yielded a remaining activity at 1 µM [1] of 100%, a remaining activity at 1 µM [2] of 94% and a remaining activity at 1 µM [3] of 80%. It also gave a remaining activity at 1 µM [4] of 98%, a remaining activity at 1 µM [5] of 100% and a remaining activity at 1 µM [6] of 84%. The remaining activity at 1 µM [7] was 80%, the remaining activity at 1 µM [8] was 92% and the remaining activity at 1 µM [9] was 41%. The remaining activity at 1 µM [10] was 100%, the remaining activity at 1 µM [11] was 101% and the remaining activity at 1 µM [12] was 95%. The remaining activity at 1 µM [13] was 111%, the remaining activity at 1 µM [14] was 91% and the remaining activity at 1 µM [15] was 74%. It also gave a remaining activity at 1 µM [16] of 86%, a remaining activity at 1 µM [17] of 99% and a remaining activity at 1 µM [18] of 80%. The remaining activity at 1 µM [19] was 97%, the remaining activity at 1 µM [20] was 80% and the remaining activity at 1 µM [21] was 64%. It also gave a remaining activity at 1 µM [22] of 99%, a remaining activity at 1 µM [23] of 95% and a remaining activity at 1 µM [24] of 64%. The remaining activity at 1 µM [25] was 91%, the remaining activity at 1 µM [26] was 91% and the remaining activity at 1 µM [27] was 90%. It also gave a remaining activity at 1 µM [28] of 97%, a remaining activity at 1 µM [29] of 84% and a remaining activity at 1 µM [30] of 95%. The remaining activity at 1 µM [31] was 96%, the remaining activity at 1 µM [32] was 78% and the remaining activity at 1 µM [33] was 91%. For the same compound, the remaining activity at 1 µM [34] was 90%, the remaining activity at 1 µM [35] was 33% and the remaining activity at 1 µM [36] was 84%. It also gave a remaining activity at 1 µM [37] of 98%, a remaining activity at 1 µM [38] of 95% and a remaining activity at 1 µM [39] of 54%.
